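Method: 48-hour compound exposure of cells in 96-well plates, five concentrations, linear interpolation of endpoints. Abbreviation: GI50, concentration required for 50% inhibition of growth. Definition used: TGI = concentration required for complete inhibition of growth.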
Legend:
Test in all cases: NCI-60 cell line screen, 48 h
CCRF-CEM leukemia = system: CCRF-CEM leukemia
U251 CNS = system: U251 CNS
TK-10 renal = system: TK-10 renal
SF-295 CNS = system: SF-295 CNS
HCT-116 colon = system: HCT-116 colon
SNB-75 CNS = system: SNB-75 CNS
RXF 393 renal = system: RXF 393 renal
LOX IMVI melanoma = system: LOX IMVI melanoma
NCI-H460 lung = system: NCI-H460 lung
HOP-62 NSCLC = system: HOP-62 NSCLC
NCI-H522 lung = system: NCI-H522 lung
OVCAR-4 ovarian = system: OVCAR-4 ovarian
SN12C renal = system: SN12C renal
786-0 renal = system: 786-0 renal
RPMI-8226 leukemia = system: RPMI-8226 leukemia
OVCAR-5 ovarian = system: OVCAR-5 ovarian
SK-OV-3 ovarian = system: SK-OV-3 ovarian
NCI/ADR-RES ovarian = system: NCI/ADR-RES ovarian
NCI-H23 lung = system: NCI-H23 lung
UACC-257 melanoma = system: UACC-257 melanoma
SNB-19 CNS = system: SNB-19 CNS
A549 NSCLC = system: A549 NSCLC
NCI-H226 lung = system: NCI-H226 lung
ACHN renal = system: ACHN renal
CAKI-1 renal = system: CAKI-1 renal
MDA-MB-231 breast = system: MDA-MB-231 breast
EKVX NSCLC = system: EKVX NSCLC
SK-MEL-2 melanoma = system: SK-MEL-2 melanoma
M14 melanoma = system: M14 melanoma

With `Cc1nc(Sc2nc3ccc([N+](=O)[O-])cc3s2)sc1C` the GI50 (CCRF-CEM leukemia) was 0.477 µM, the TGI (CCRF-CEM leukemia) was 6.18 µM and the GI50 (U251 CNS) was 1.99 µM. The TGI (U251 CNS) was 7.9 µM, the GI50 (TK-10 renal) was 2.05 µM and the TGI (TK-10 renal) was 7.87 µM. For the same molecule, the GI50 (SF-295 CNS) was 13.8 µM, the TGI (SF-295 CNS) was 26.7 µM and the GI50 (HCT-116 colon) was 1.06 µM. The TGI (HCT-116 colon) was 2.49 µM, the GI50 (SNB-75 CNS) was 2.48 µM and the TGI (SNB-75 CNS) was 12.3 µM. For the same molecule, the GI50 (RXF 393 renal) was 1.22 µM, the TGI (RXF 393 renal) was 3.39 µM and the GI50 (LOX IMVI melanoma) was 0.221 µM. It also gave a TGI (LOX IMVI melanoma) of 0.932 µM, a GI50 (NCI-H460 lung) of 0.894 µM and a TGI (NCI-H460 lung) of 6.26 µM. It also gave a GI50 (HOP-62 NSCLC) of 3.81 µM, a TGI (HOP-62 NSCLC) of 14.2 µM and a GI50 (NCI-H522 lung) of 0.627 µM. The TGI (NCI-H522 lung) was 2.36 µM, the GI50 (OVCAR-4 ovarian) was 1.35 µM and the TGI (OVCAR-4 ovarian) was 9.81 µM. For the same molecule, the GI50 (SN12C renal) was 1.74 µM, the TGI (SN12C renal) was 6.04 µM and the GI50 (786-0 renal) was 1.78 µM. It also gave a TGI (786-0 renal) of 6.1 µM, a GI50 (RPMI-8226 leukemia) of 1.8 µM and a TGI (RPMI-8226 leukemia) of 6.52 µM. It also gave a GI50 (OVCAR-5 ovarian) of 2.84 µM, a TGI (OVCAR-5 ovarian) of 11.8 µM and a GI50 (SK-OV-3 ovarian) of 4.38 µM. The TGI (SK-OV-3 ovarian) was 15.5 µM, the GI50 (NCI/ADR-RES ovarian) was 1.63 µM and the TGI (NCI/ADR-RES ovarian) was 5.45 µM. It also gave a GI50 (NCI-H23 lung) of 1.03 µM, a TGI (NCI-H23 lung) of 4.44 µM and a GI50 (UACC-257 melanoma) of 4.62 µM. It also gave a TGI (UACC-257 melanoma) of 16.4 µM, a GI50 (SNB-19 CNS) of 8.41 µM and a TGI (SNB-19 CNS) of 21.9 µM. For the same molecule, the GI50 (A549 NSCLC) was 10.4 µM, the TGI (A549 NSCLC) was 22.7 µM and the GI50 (NCI-H226 lung) was 1.07 µM. It also gave a TGI (NCI-H226 lung) of 2.84 µM, a GI50 (ACHN renal) of 1.61 µM and a TGI (ACHN renal) of 3.81 µM. For the same molecule, the GI50 (CAKI-1 renal) was 1.9 µM, the TGI (CAKI-1 renal) was 8.03 µM and the GI50 (MDA-MB-231 breast) was 1.84 µM. It also gave a TGI (MDA-MB-231 breast) of 11 µM, a GI50 (EKVX NSCLC) of 11.6 µM and a TGI (EKVX NSCLC) of 24.2 µM. The GI50 (SK-MEL-2 melanoma) was 1.6 µM, the TGI (SK-MEL-2 melanoma) was 4.53 µM and the GI50 (M14 melanoma) was 1.82 µM.

Reference: PubChem BioAssay (NCI)
